Earlier results as cited in patent US9011933B2, “Therapeutic methods and pharmaceutical compositions for treating warts with tellurium compounds” (Biomas Ltd., priority 2004, dated 2015).
Read-outs that look alike come from different tables or passages of the source.

Legend:
human viruses = settings: studies conducted heretofore
[1] = rats; intravenous and intramuscular dosage

Cl[TeH]1(Cl)(Cl)OCCO1 [AS101, ammonium trichloro(dioxyethylene-O,O′)tellurate]
efficacy as an anti-viral agent against human viruses (human viruses): insufficient | LD50 relative to the immunology effective dose [1]: 500-1000 folds

N#N [liquid nitrogen]
patients remaining clear of warts (warts; after a median of 19 months): 57% | initial cure, patients (warts; liquid nitrogen treatment of warts): 52-83%

O=C(O)c1ccccc1O [salicylic acid]
cure rate (warts; topical standard treatment, after 4 weeks, at best): ≤ 40%

O=C(O)C(Cl)(Cl)Cl [trichloro acetic acid]
cure rate (warts; typical result of treatment): 64-81%

bleomycine
success rate (warts; intralesional therapy): ~70%
